System: Fathead Minnow
Settings: 750 mg/L concentration, 48 hours
Source text: CALIFORNIA CODE REGS (“CCR”) Title 22-Fathead Minnow Hazardous Waste Screen Bioassay.

OO [Hydrogen peroxide (5%), Hydrogen peroxide]
survival: 0%
